Source: PubChem BioAssay (NCI)
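Tested at 5 concentrations; 48 h exposure; 96-well plates; endpoints linearly interpolated, else capped at highest concentration. TGI is the concentration that stops growth completely.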

How the values were obtained:
Assay in all cases: growth of human tumour cells (NCI), 48 h
UO-31 renal = system: UO-31 renal
OVCAR-8 ovarian = system: OVCAR-8 ovarian
A549 NSCLC = system: A549 NSCLC
MOLT-4 leukemia = system: MOLT-4 leukemia
NCI/ADR-RES ovarian = system: NCI/ADR-RES ovarian
RXF 393 renal = system: RXF 393 renal
HOP-62 NSCLC = system: HOP-62 NSCLC
HL-60(TB) leukemia = system: HL-60(TB) leukemia
HS 578T breast = system: HS 578T breast
MDA-MB-435 = system: MDA-MB-435
NCI-H460 lung = system: NCI-H460 lung
BT-549 breast = system: BT-549 breast
RPMI-8226 leukemia = system: RPMI-8226 leukemia
SK-MEL-5 melanoma = system: SK-MEL-5 melanoma
UACC-257 melanoma = system: UACC-257 melanoma
SR leukemia = system: SR leukemia

SMILES: COC[C@@H](C[C@H]1O[C@@](O)([C@H](O)[C@@H]2C[C@H](OC)[C@@H](O)CC/C=C(C)/C=C/[C@@H](O[C@@H]3O[C@@H](C)[C@H](OC)[C@@H](O)[C@@H]3O)[C@H](C)/C=C(C)/C=C(C)/C=C(\C)C(=O)O2)[C@H](C)[C@@H](O)[C@H]1C)O[C@H]1C[C@](C)(O)[C@@H](O[C@H]2C[C@@H](OC)[C@H](O)[C@@H](C)O2)C(C)O1 (stereo partly specified)
- TGI (UO-31 renal): > 100 µM
- TGI (OVCAR-8 ovarian): > 100 µM
- TGI (A549 NSCLC): > 100 µM
- TGI (MOLT-4 leukemia): > 64.3 µM
- TGI (NCI/ADR-RES ovarian): > 100 µM
- TGI (RXF 393 renal): > 100 µM
- TGI (HOP-62 NSCLC): > 100 µM
- TGI (HL-60(TB) leukemia): > 100 µM
- TGI (HS 578T breast): > 100 µM
- TGI (MDA-MB-435): > 100 µM
- TGI (NCI-H460 lung): > 100 µM
- TGI (BT-549 breast): > 100 µM
- TGI (RPMI-8226 leukemia): > 100 µM
- TGI (SK-MEL-5 melanoma): > 100 µM
- TGI (UACC-257 melanoma): 26.5 µM

SMILES: Cc1cccc(N=NC(=O)NNc2cccc(C)c2C)c1C
- TGI (UO-31 renal): > 100 µM
- TGI (OVCAR-8 ovarian): > 100 µM
- TGI (A549 NSCLC): > 100 µM
- TGI (HOP-62 NSCLC): 86.7 µM
- TGI (HL-60(TB) leukemia): 57.1 µM
- TGI (MDA-MB-435): 64.9 µM
- TGI (NCI-H460 lung): > 100 µM
- TGI (BT-549 breast): > 100 µM
- TGI (RPMI-8226 leukemia): 74.8 µM
- TGI (SK-MEL-5 melanoma): > 100 µM
- TGI (SR leukemia): > 100 µM
- TGI (UACC-257 melanoma): > 100 µM

SMILES: NC(Cc1ccccc1)C(=O)N[C@H]1c2ccsc2/C(=N/O)[C@H]1O (stereo partly specified)
- TGI (UO-31 renal): > 100 µM
- TGI (OVCAR-8 ovarian): > 100 µM
- TGI (A549 NSCLC): > 100 µM
- TGI (NCI/ADR-RES ovarian): > 100 µM
- TGI (RXF 393 renal): > 100 µM
- TGI (HOP-62 NSCLC): > 100 µM
- TGI (HL-60(TB) leukemia): > 100 µM
- TGI (MDA-MB-435): > 100 µM
- TGI (NCI-H460 lung): > 100 µM
- TGI (BT-549 breast): > 100 µM
- TGI (SK-MEL-5 melanoma): > 100 µM
- TGI (SR leukemia): > 100 µM
- TGI (UACC-257 melanoma): > 100 µM

SMILES: Cc1c(S(=O)(=O)/N=C(\NO)Nc2ccc(Cl)c(Cl)c2)sc2ccc(Cl)cc12
- TGI (UO-31 renal): 37.8 µM
- TGI (OVCAR-8 ovarian): 46.6 µM
- TGI (A549 NSCLC): 68.8 µM
- TGI (MOLT-4 leukemia): > 100 µM
- TGI (NCI/ADR-RES ovarian): 41.7 µM
- TGI (RXF 393 renal): 34 µM
- TGI (HOP-62 NSCLC): 42.3 µM
- TGI (HL-60(TB) leukemia): 77.3 µM
- TGI (HS 578T breast): 80.9 µM
- TGI (MDA-MB-435): 37.3 µM
- TGI (BT-549 breast): 34 µM
- TGI (RPMI-8226 leukemia): > 100 µM
- TGI (SK-MEL-5 melanoma): 31.5 µM
- TGI (UACC-257 melanoma): 37.6 µM

SMILES: O=C1/C(=N/O)Cc2c(Br)ccc(Br)c21
- TGI (UO-31 renal): > 100 µM
- TGI (OVCAR-8 ovarian): > 100 µM
- TGI (MOLT-4 leukemia): 82.4 µM
- TGI (NCI/ADR-RES ovarian): > 100 µM
- TGI (RXF 393 renal): > 100 µM
- TGI (HOP-62 NSCLC): > 100 µM
- TGI (HL-60(TB) leukemia): 76.3 µM
- TGI (HS 578T breast): > 100 µM
- TGI (MDA-MB-435): > 100 µM
- TGI (NCI-H460 lung): > 100 µM
- TGI (RPMI-8226 leukemia): > 100 µM
- TGI (SK-MEL-5 melanoma): > 100 µM
- TGI (SR leukemia): 74.4 µM
- TGI (UACC-257 melanoma): > 100 µM

SMILES: O=C1C=CC[C@H]2O[C@@H](COC(=O)Cc3ccccc3)C[C@H]2O1
- TGI (UO-31 renal): > 100 µM
- TGI (OVCAR-8 ovarian): 77.9 µM
- TGI (A549 NSCLC): > 100 µM
- TGI (MOLT-4 leukemia): > 100 µM
- TGI (NCI/ADR-RES ovarian): > 100 µM
- TGI (HOP-62 NSCLC): > 100 µM
- TGI (HL-60(TB) leukemia): 65.2 µM
- TGI (HS 578T breast): 59.4 µM
- TGI (MDA-MB-435): > 100 µM
- TGI (NCI-H460 lung): > 100 µM
- TGI (RPMI-8226 leukemia): > 100 µM
- TGI (SK-MEL-5 melanoma): > 100 µM
- TGI (SR leukemia): > 100 µM
- TGI (UACC-257 melanoma): > 100 µM

SMILES: CCN(CC)CCNc1nc2ccc([N+](=O)[O-])cc2[n+]([O-])n1
- TGI (UO-31 renal): > 100 µM
- TGI (OVCAR-8 ovarian): 43.1 µM
- TGI (A549 NSCLC): 61 µM
- TGI (MOLT-4 leukemia): 50.6 µM
- TGI (NCI/ADR-RES ovarian): 70.5 µM
- TGI (RXF 393 renal): > 100 µM
- TGI (HL-60(TB) leukemia): 17.9 µM
- TGI (MDA-MB-435): 29.5 µM
- TGI (NCI-H460 lung): 56.8 µM
- TGI (BT-549 breast): > 100 µM
- TGI (RPMI-8226 leukemia): 44.9 µM
- TGI (SK-MEL-5 melanoma): 22.3 µM
- TGI (SR leukemia): > 100 µM
- TGI (UACC-257 melanoma): 31.2 µM

SMILES: COc1cc(/C=C2/C[C@H]3[C@@H]4CC=C5C[C@@H](O)CC[C@]5(C)[C@H]4CC[C@]3(C)NC2=O)cc(OC)c1OC
- TGI (UO-31 renal): 29.8 µM
- TGI (OVCAR-8 ovarian): > 70.8 µM
- TGI (A549 NSCLC): > 100 µM
- TGI (MOLT-4 leukemia): > 100 µM
- TGI (NCI/ADR-RES ovarian): > 65.2 µM
- TGI (RXF 393 renal): 42.3 µM
- TGI (HOP-62 NSCLC): > 89.1 µM
- TGI (HL-60(TB) leukemia): > 100 µM
- TGI (MDA-MB-435): > 100 µM
- TGI (NCI-H460 lung): 25.9 µM
- TGI (BT-549 breast): 63 µM
- TGI (RPMI-8226 leukemia): > 44.4 µM
- TGI (SK-MEL-5 melanoma): > 47.5 µM
- TGI (SR leukemia): > 100 µM
- TGI (UACC-257 melanoma): > 71.5 µM
